Reference: publication PMC11729550, “Discovery of indole analogue Tc3 as a potent pyroptosis inducer and identification of its combination strategy against hepatic carcinoma” (Theranostics, 2025)

Key:
[1] = test system: GSDME; test: Western blot of GSDME activation; format: cell-based, human; details: HepG2 and SK-Hep1 cells
Description: (§1) The whole-cell protein was extracted by RIPA lysis buffer contained with protease and phosphatase inhibitor cocktail (MCE, HY-K0010) from cells treated by indole analogues. Proteins were separated by sodium dodecyl sulfate-polyacrylamide gel electrophoresis (SDS-PAGE) gel, and then blotted onto polyvinylidene difluoride membrane (Millipore, IPVH00010). The membranes were incubated with the primary antibodies and the following horseradish peroxidase-conjugated (HRP) secondary antibodies. Next, membranes were washed and developed by ECL regent (Millipore, WBKLS0500).

[2] = test system: PERK; test: Western blot of ER stress responders; format: cell-based, human; details: HepG2 and SK-Hep1 cells
Description: as §1

[3] = Pharmacokinetic study of vein administration; format: in vivo; details: Balb/c mice, intravenous 10 mg/kg
Description: Chromatographic conditions employed an ultimate AQ-C18 column (2.1 mm × 50 mm, 5.0 μm) and its temperature was set to 40℃. The mobile phase consisted of methanol and 0.1% formic acid, with a gradient elution program: 0-0.01 min, methanol 15%, 0.01-2 min, methanol 95%, 2-3 min, methanol 15%. The flow rate was set to 0.6 mL/min, the elution time was 3 min and ESI-MS in negative mode MRM was used for quantitative analysis. Masslynx 4.1 software was used for data acquisition and instrument control.
Stock solutions of Tc3 (1.0 mg/mL) and JBHDN (0.1 mg/mL) were prepared in methanol. A series of working solutions (5, 20, 100, 200, 800, 1000 and 2000 ng/mL) were added into blank mouse blood to prepare the standard curves. The JBHDN stock solution was diluted with 5% trichloroacetic acid-methanol to 100 ng/mL. In the same manner as the standard curve, quality control (QC) samples at 10 ng/mL, 450 ng/mL, and 1500 ng/mL were prepared. Next, Balb/c mice were administered intravenously (10 mg/kg). After 5 min, 15 min, 30 min, 1 h, 2 h, 4 h, 8 h, and 24 h, blood samples (20 μL) were collected from the tail vein of mice and mixed with internal standard JBHDN (100 ng/mL). The mixtures were then vortexed for 10 min at 4℃ and centrifuged at 5500 g for 10 min. The supernatant was mixed with 200 μL ultrapure water, and then injected into liquid chromatography-tandem mass spectrometry (LC-MS/MS) system for analysis.

[4] = test system: PLC-PRF5 cells; test: Anti-tumor activity assay (IC50 value), cells counted after three days; format: cell-based; details: Homo sapiens, PLC-PRF-5, 72 h
Source text: The cells were counted with hemocytometer.

[5] = test system: PRDX1; test: Western blot of PRDX1; format: cell-based, human; details: hepatic carcinoma cells
Description: as §1

[6] = test system: Balb/c mice; test: Subchronic toxicity test; format: in vivo
Description: And the organ tissues of mice were collected for further H&E staining.
The formalin‐fixed and paraffin‐embedded tissues were cut into 5 μm sections. The sections were firstly soaked in xylene for removing paraffin and soaked in alcohol at decreasing concentration for tapping water. In the H&E staining assay, the sections were stained in Harris’s hematoxylin reagent and eosin reagent in turn. In the IHC staining, the sections were conducted antigen retrieval process and blocked with normal goat serum. Next, sections were incubated with the primary antibodies overnight and incubated with HRP-conjugated secondary antibodies. The tissue images were captured by a microscope.

[7] = test system: HepG2 cells; test: Anti-tumor activity assay (IC50 value), cells counted after three days;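 also: HepG2 cells exposed to a drug concentration series for 3 days, then counted with a hemocytometer, inhibition relative to untreated control cell number, IC50 obtained by curve fitting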
Description: For half maximal inhibitory concentrations (IC50) analysis, the hepatic carcinoma cells (HepG2, SK-Hep1 and PLC-PRF5) were seeded in 24-well plates respectively, then treated with drugs at concentration gradient for three days. The cells were counted with hemocytometer. […] A is the cell quantity of the control group and B is the cell quantity of the drug treated group. The cell inhibition rate was transformed using its logarithm. And the drug IC50 value were calculated by Graphpad Prsim 9 software with curve fitting of the drug concentration and log (cell inhibition rate).

[8] = test system: hepatic carcinoma cells; test: Cell migration assay (wound scratch, transwell); format: cell-based, human; details: HepG2 and SK-Hep1, 0-4 μM
Description: For transwell assay, the hepatic carcinoma cells were seeded in wells and put wells into 24-well plates pre-loaded DMEM medium supplemented with 20% FBS. The wells were added only DMEM medium with Tc3. The cells migrated through the membrane of wells in two days. Next, the wells were fixed by paraformaldehyde, stained by crystal violet and photographed for statistical analysis. For cell scratch assay, the hepatic carcinoma cells were seeded in 6-well plates and treated with Tc3. The scratch lines were obtained before the cell fusion reached almost 100%, and the cells were photographed at time gradient points for statistical analysis.

[9] = test system: HepG2 cells; test: Flow cytometry of propidium iodide and annexin V-FITC staining; format: cell-based, human; details: HepG2, 4 μM
Source text: Figure 2 Cytotoxic effect of Tc3 on human hepatic carcinoma cells in vitro. […] (B-C) Cell viability rates of HepG2 (B) and SK-Hep1 (C) cells treated with Tb7, Tc1, Tc3, Tc4 and other clinical chemotherapy drugs. (D-F) Flow cytometry of propidium iodide and annexin V-fluorescein isothiocyanate (FITC)-stained HepG2 cells (D). Statistical analysis of the early apoptotic cells (E) and late apoptotic cells (F). (G-I) Flow cytometry of propidium iodide and annexin V-fluorescein isothiocyanate (FITC)-stained AML-12 cells (G). Statistical analysis of the early apoptotic cells (H) and late apoptotic cells (I). Data are presented as mean ± SD of three independent biological experiments. *p < 0.05, **p < 0.01, ***p < 0.001 and ****p < 0.0001, ns, no significant.

[10] = test system: HepG2 CDXs; test: HepG2 CDXs treatment; format: in vivo, Balb/c nude mice; details: 20 mg/kg and 40 mg/kg i.p. five times
Source text: Balb/c nude mice (female, 6-week-old) were subcutaneously injected with 2 × 10^6 HepG2 cells on the left and right flanks to construct cell-derived xenografts (CDXs). The patient-derived xenografts (PDXs) samples were gifts from Dr Changliang Shan of Nankai University. C57 BL/6N mice (female, 5-week-old) were subcutaneously injected with 2 × 10^6 Hepa1-6 cells mixed with matrigel (ABW, 0827265) on the left and right flanks. The mice were inoculated with hepatic carcinoma CDXs or PDXs for at least four days, and treated (i.p.) by vehicle and Tc3. […] Tumor volume = 4π/3 × (Length/2) × (Width/2)^2. All animal experiments were carried out in accordance with the recommendations of Requirements of the Ethical Review System of Biomedical Research Involving Human by National Health and Family Planning Commission of China and Nankai University Ethics Committee with written informed consent complying with the Declaration of Helsinki (IAEC ID: 2023-STDWLL-000249).

[11] = test system: ROS; test: Reactive Oxygen Species detection (DCFH-DA); format: cell-based, human; details: HepG2 cells, 24 h
Description: The hepatic carcinoma cells were seeded in 6-well plates and treated with Tc3 for 24 h. The cells were then stained by DCFH-DA (10 μM) for 20 min, washed with PBS buffer for two times, and the fluorescence intensity was captured by a confocal microscope (Leica, TCS SP8).

CC(C)[C@H](N)C(=O)NCCCn1cc(/C=C2\S/C(=N\c3ccc(N4CCOCC4)cc3)N(Cc3ccc(F)cc3)C2=O)c2ccccc21 [Tc3]
GSDME activation / cleavage (western blotting) [1]: promoted the cleavage of GSDME | PERK activation (western blotting) [2]: activated | plasma drug concentration ([3]; 5 min-24 h): 12.4 to 1417.0 ng/mL | AUC(0-t) ([3]; mouse, whole blood): 1520 ng·h/mL | half-life ([3]; mouse, whole blood, read-out: half-life elimination t1/2 (converted)): 8.08 h | IC50 [4]: 1.79 µM | expression of PRDX1 [5]: obviously reduced | glomerular structure of the kidney (HE staining) ([6]; 60 mg/kg): slightly damaged | jejunum crypts and villi (HE staining) ([6]; 60 mg/kg): severely disrupted | weight and health state ([6]; 60 mg/kg i.p.): lower weight and worse health state | lung findings (HE staining) ([6]; i.p. every two days, day 14): alveolar wall thickening and increased numbers of lymphocytes | toxicity to the heart, liver, spleen and stomach (HE staining) ([6]; i.p. every two days, day 14): no significant toxicity | fold increase in cellular potency ([7]; HepG2, compared to T1): ~12 fold | IC50 ([7]; Homo sapiens, HepG2, 72 h, read-out: IC50 HepG2): 1.37 µM | cell migration rates (wound scratch, transwell) [8]: reduced cell migration rates | cell death by annexin V / propidium iodide flow cytometry [9]: severe cell death | growth rate and weight of HepG2 CDX tumors [10]: significantly smaller | intracellular ROS (DCFH-DA probes) [11]: observably up-regulated
